Values of other authors as cited in patent US7029655B2, “Magnetic resonance imaging agents for in vivo labeling and detection of amyloid deposits” (California Institute of Technology, priority 2000, dated 2006).

Settings: thermodynamic stability of the Gd(III) chelate

Structure (SMILES)	stability constant (K) / formation constant, logK
O=C([O-])CN1CCN(CC(=O)[O-])CCN(CC(=O)[O-])CCN(CC(=O)[O-])CC1.[Gd+3] [Gd-DOTA]	28.5
O=C([O-])CN(CCN(CC(=O)[O-])CC(=O)[O-])CCN(CC(=O)[O-])CC(=O)[O-].[Gd+3] [Gd(DTPA)^2−]	22.4
